# According to article PMC7724566, “Prospects for Clinical Development of Stat5 Inhibitor IST5-002: High Transcriptomic Specificity in Prostate Cancer and Low Toxicity In Vivo” (Cancers, 2020):
# Legend:
# [1] = system: CWR22Pc cells; assay: RNA-seq transcriptome, IST5 vs. genetic Stat5 knockdown; format: cell-based, human; conditions: 3 days
# From the text: In order to evaluate the potential of IST5 for further optimization for clinical development, we compared the IST5-induced transcriptome to that of Stat5 genetic knockdown in PC cells. Stat5 expression was inhibited by lenti-viral expression of shStat5 or shCtrl in CWR22Pc cells for 3 days (Figure 2A). CWR22Pc cells were chosen as the model system because the cell line expresses both Stat5 and androgen receptor and mimics the course of disease progression in PC patient. When grown in mice as xenograft tumors, CWR22Pc cells form androgen-dependent tumors which regress in response to androgen deprivation but later recur as Castrate-Resistant Prostate Cancer (CRPC) tumors. In parallel wells, CWR22Pc cells were treated with IST5 or vehicle for 3 days. We performed RNA-seq to profile the gene expression changes and received an average of 22.4 million paired-end clean reads from each sample (Table S5). […] Most importantly, the similarity between the transcriptomes regulated by shStat5 vs. IST5 was remarkably high, with Pearson correlation coefficient ranging from 0.98–0.99 (Figure 2C).
# Figure 2 IST5 show high transcriptional specificity in prostate cancer cells. […]
# Total RNA of each replicate sample was isolated using RNeasy Micro Kit (QIAGEN, Valencia, CA, USA) and reverse transcribed with Super-Script III Reverse Transcriptase (Life Technologies, Brown Deer, WI, USA) following the manufacturer’s instructions. […] RNA quality was assessed by Agilent Bioanalyzer 2100 (Agilent, Santa Clara, CA, USA), and RNA integrity number (RIN) ≥7.5 was qualified for subsequent RNA-seq analysis.
# We performed RNA-seq to evaluate the transcriptomes regulated by IST5 vs. genetic knockdown (lenti-shStat5) of Stat5 with corresponding controls (vehicle or lenti-shCtrl). […] Sequencing data (fastq files) were quantified with a software tool Salmon (version 1.1.0). […] Transcripts with less than 10 median read-counts were filtered out. […] Statistical significance was determined at a FDR threshold <0.01. […]
# [2] = system: C57BL/6J and athymic nude mice; assay: Acute and chronic toxicity studies, clinical observation and histology; format: in vivo
# Description: The acute and chronic toxicity studies were carried out in both male C57BL/6J and athymic nude mice (Table 3 and Table 4) using daily administration of IST5 vs. vehicle at doses of 0, 10, 30 and 100 mg/kg (n = 5/dose) as well as in female (data not shown) mice. There were no signs of anemia (hemoglobin-HGB; hematocrit-HCT), thrombocytopenia or leukopenia. In either acute or chronic toxicity studies, there was no mortality in the mice associated with IST5 treatment. The gross histology of the liver, spleen (Figure 6), kidney and brain were normal (28 d). […] IST5 had no effects on body weight, organ weight, appearance, respiration, or eye function. Of note, a number of the Jak2 kinase inhibitors in use or in clinical development have shown off-target inhibitory effects on TrkB kinase (a receptor for brain-derived neurotrophic factor), thereby causing neurological side-effects.
# Figure 6 IST5 […] significant chronic toxicity in vivo in mice. The chronic toxicity studies were carried out in both male and female C57BL/6J and athymic nude mice by daily administration of IST5 vs. vehicle at doses of 0, 10, 30 and 100 mg/kg (n = 5/dose). At the end of the study, heart, kidney, liver, lung and spleen tissues were fixed and stained with hematoxylin and eosin. The gross histology of heart, liver, spleen, kidney, spleen and brain were all normal (28 d).
# Forty athymic nude mice (8 weeks) (Crl:NU/NCr-Foxn1n) of either sex (20 males and 20 females) were randomized into four groups (n = 5/group) for either sex. The randomization of the mice was carried out based on their baseline body weight measured on day 0. IST5 or vehicle (0.3% hydroxypropyl cellulose, (Sigma-Aldrich, MO, St. Louis, MO, USA) were administered to the mice by i.p. injection for 28 days. The mice were observed daily for behavior, and body weights were measured on every 3rd day throughout the 28-day experimental protocol. The monitoring was started immediately after the compound administration and continued for 2 h for any acute signs of toxicity. In addition, the mice were monitored daily for any signs of toxicity using several clinical parameters. The clinical signs that were taken into consideration were as follows: 1) weight loss: rapid weight loss ([…]) or, weight loss of extended period time ([…]); 2) rapid growth of mass or masses; 3) paralysis or paresis (partial paralysis); 4) frank bleeding from any orifice; 5) lesions interfering with eating or drinking; 6) diarrhea (non-formed/soft stool or diarrhea liquid stool); 6) loss of body temperature; 7) appearance: rough coat, porphyrin staining (red or brown staining around eyes, nose, or along front paws, distended abdomen, alopecia; 8) eyes: ocular discharge, pale appearance, distinct icterus (jaundice or yellowing of the eyes); 9) respiration: coughing or wheezing, rales or crackling in the lungs, respiration increased or labored; 10) behavioral: hunched posture, huddling in a corner, lethargy, avoiding cagemate(s), head tilt, tremors (head, body, tail), spasticity (stiff muscles), ataxia (loss of voluntary muscle movement), seizures or convulsions, circling, persistent self-induced trauma, chattering or vocalizations, loss of startle response, loss of righting reflex. The clinical chemistry parameters measured were the same as those used for the acute toxicity study.
# The sub-chronic toxicity study (10 days) was carried out in C57BL/6J mice (8 weeks) (stock 000664) (n = 10/dose group 5 of each sex). […]
# [3] = 6 µM, FDR <0.01, fold change >2 or <−2
smiles,measurement,setting,value
O=P(O)(O)OCC1OC(n2cnc3c(NCc4ccccc4)ncnc32)C(O)C1O (centres unmarked) [IST5],transcripts down-regulated,[1]; [3],765
same,transcripts upregulated,[1]; [3],324
same,Pearson correlation coefficient of transcriptomes regulated by shStat5 vs. IST5,[1]; IST5 6 µM,0.98–0.99
same,mortality associated with treatment,"[2]; acute or chronic toxicity studies, 10, 30 and 100 mg/kg",no mortality
same,"signs of anemia, thrombocytopenia or leukopenia","[2]; daily 10, 30 and 100 mg/kg",no signs
same,"adverse effects on blood clinical chemistry (blood urea, liver enzymes, glucose, albumin)","[2]; mouse, in vivo",no adverse effects
same,"effects on body weight, organ weight, appearance, respiration, or eye function","[2]; mouse, in vivo",no effects
same,"gross histology of liver, spleen, kidney and brain","[2]; mouse, in vivo",normal
